The text below walks through data of patent US8124610B2, “Sodium channel inhibitors” (Icagen Inc., priority 2007, dated 2012).

Test [1] addresses T1, hSCN3A (Homo sapiens, UniProt Q9NY46).
T1 construct: expressed in transfected cells
In words: Whole-cell patch-clamp electrophysiology (conventional or PatchXpress), HEK cells expressing hSCN3A, estimated IC-50. To be noted: estimated IC-50, HEK cells expressing hSCN3A; class symbols or bounds; read-out: SCN3A EIC-50. Type of test: cell-based. In outline:
(§1)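 Current through each channel was evoked by a 20 ms step to 0 mV following an 8 s conditioning prepulse at the cell's own half-inactivation voltage. Recordings used HEK lines stably expressing the channel, conventional or PatchXpress patch clamp, room temperature, pH 7.4 bath; inhibition taken as pre/post-compound amplitude change.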

For test [2], the target named is T2, hSCN9A (Homo sapiens, UniProt Q15858).
T2 construct: expressed in transfected cells
T2 sequence (Q15858 whole entry): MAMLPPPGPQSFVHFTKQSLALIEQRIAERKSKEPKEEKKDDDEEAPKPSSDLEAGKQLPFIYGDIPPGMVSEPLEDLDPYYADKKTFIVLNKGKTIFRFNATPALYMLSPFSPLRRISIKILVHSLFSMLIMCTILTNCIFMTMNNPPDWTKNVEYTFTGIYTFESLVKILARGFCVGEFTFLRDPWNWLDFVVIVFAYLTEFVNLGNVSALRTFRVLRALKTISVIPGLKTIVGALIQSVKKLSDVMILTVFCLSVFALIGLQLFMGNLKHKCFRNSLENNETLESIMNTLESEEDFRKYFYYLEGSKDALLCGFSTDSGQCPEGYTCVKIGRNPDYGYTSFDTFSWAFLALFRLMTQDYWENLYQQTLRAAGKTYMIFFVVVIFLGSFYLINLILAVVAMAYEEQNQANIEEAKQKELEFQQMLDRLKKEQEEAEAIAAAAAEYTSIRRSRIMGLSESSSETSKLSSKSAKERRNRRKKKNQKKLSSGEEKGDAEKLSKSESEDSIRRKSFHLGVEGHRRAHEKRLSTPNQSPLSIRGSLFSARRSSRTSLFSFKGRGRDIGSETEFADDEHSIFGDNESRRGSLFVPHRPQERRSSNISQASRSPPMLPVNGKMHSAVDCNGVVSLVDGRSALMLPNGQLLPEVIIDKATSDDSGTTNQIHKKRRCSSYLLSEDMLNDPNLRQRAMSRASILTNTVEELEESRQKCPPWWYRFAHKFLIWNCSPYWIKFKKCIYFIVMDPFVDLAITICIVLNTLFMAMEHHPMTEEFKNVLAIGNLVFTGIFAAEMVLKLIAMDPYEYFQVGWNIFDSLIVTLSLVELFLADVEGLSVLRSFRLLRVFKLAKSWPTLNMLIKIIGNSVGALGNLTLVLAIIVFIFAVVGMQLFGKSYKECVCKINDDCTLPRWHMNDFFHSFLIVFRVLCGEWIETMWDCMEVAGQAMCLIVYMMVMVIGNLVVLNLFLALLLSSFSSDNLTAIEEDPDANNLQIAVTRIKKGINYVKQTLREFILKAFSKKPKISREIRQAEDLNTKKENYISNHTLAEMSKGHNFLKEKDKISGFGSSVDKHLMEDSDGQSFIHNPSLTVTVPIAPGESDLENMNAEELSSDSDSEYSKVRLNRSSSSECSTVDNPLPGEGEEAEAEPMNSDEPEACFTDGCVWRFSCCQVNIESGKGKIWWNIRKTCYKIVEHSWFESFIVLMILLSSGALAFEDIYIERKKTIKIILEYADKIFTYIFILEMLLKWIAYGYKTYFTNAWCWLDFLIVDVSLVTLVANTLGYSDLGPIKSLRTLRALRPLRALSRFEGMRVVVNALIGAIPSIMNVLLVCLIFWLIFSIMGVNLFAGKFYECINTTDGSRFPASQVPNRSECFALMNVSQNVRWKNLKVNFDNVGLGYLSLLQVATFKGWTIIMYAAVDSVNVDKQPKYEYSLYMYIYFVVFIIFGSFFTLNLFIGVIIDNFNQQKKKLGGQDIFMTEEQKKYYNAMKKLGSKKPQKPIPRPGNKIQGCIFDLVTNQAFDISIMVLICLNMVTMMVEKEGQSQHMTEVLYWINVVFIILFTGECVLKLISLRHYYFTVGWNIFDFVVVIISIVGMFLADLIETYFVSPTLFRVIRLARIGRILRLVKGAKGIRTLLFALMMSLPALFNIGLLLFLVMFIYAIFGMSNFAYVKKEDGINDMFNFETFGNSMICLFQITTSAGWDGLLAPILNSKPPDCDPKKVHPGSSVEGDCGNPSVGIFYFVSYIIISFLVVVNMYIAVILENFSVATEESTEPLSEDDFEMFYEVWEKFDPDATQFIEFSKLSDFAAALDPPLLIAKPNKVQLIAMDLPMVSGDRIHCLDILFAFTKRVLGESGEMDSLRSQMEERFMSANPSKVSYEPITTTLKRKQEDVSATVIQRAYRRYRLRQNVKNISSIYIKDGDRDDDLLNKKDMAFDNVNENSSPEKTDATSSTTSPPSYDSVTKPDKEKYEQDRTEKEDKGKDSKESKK
In words: Whole-cell patch-clamp electrophysiology (conventional or PatchXpress), HEK cells expressing hSCN9A, estimated IC-50. Type of test: cell-based. To be noted: estimated IC-50, HEK cells expressing hSCN9A; class symbols or bounds; read-out: SCN9A EIC-50. In outline: as §1

SMILES strings stand for the structures. pIC50: −log10 of the molar value. Some results are limits rather than exact numbers.

T1 sequence (Q9NY46 whole entry): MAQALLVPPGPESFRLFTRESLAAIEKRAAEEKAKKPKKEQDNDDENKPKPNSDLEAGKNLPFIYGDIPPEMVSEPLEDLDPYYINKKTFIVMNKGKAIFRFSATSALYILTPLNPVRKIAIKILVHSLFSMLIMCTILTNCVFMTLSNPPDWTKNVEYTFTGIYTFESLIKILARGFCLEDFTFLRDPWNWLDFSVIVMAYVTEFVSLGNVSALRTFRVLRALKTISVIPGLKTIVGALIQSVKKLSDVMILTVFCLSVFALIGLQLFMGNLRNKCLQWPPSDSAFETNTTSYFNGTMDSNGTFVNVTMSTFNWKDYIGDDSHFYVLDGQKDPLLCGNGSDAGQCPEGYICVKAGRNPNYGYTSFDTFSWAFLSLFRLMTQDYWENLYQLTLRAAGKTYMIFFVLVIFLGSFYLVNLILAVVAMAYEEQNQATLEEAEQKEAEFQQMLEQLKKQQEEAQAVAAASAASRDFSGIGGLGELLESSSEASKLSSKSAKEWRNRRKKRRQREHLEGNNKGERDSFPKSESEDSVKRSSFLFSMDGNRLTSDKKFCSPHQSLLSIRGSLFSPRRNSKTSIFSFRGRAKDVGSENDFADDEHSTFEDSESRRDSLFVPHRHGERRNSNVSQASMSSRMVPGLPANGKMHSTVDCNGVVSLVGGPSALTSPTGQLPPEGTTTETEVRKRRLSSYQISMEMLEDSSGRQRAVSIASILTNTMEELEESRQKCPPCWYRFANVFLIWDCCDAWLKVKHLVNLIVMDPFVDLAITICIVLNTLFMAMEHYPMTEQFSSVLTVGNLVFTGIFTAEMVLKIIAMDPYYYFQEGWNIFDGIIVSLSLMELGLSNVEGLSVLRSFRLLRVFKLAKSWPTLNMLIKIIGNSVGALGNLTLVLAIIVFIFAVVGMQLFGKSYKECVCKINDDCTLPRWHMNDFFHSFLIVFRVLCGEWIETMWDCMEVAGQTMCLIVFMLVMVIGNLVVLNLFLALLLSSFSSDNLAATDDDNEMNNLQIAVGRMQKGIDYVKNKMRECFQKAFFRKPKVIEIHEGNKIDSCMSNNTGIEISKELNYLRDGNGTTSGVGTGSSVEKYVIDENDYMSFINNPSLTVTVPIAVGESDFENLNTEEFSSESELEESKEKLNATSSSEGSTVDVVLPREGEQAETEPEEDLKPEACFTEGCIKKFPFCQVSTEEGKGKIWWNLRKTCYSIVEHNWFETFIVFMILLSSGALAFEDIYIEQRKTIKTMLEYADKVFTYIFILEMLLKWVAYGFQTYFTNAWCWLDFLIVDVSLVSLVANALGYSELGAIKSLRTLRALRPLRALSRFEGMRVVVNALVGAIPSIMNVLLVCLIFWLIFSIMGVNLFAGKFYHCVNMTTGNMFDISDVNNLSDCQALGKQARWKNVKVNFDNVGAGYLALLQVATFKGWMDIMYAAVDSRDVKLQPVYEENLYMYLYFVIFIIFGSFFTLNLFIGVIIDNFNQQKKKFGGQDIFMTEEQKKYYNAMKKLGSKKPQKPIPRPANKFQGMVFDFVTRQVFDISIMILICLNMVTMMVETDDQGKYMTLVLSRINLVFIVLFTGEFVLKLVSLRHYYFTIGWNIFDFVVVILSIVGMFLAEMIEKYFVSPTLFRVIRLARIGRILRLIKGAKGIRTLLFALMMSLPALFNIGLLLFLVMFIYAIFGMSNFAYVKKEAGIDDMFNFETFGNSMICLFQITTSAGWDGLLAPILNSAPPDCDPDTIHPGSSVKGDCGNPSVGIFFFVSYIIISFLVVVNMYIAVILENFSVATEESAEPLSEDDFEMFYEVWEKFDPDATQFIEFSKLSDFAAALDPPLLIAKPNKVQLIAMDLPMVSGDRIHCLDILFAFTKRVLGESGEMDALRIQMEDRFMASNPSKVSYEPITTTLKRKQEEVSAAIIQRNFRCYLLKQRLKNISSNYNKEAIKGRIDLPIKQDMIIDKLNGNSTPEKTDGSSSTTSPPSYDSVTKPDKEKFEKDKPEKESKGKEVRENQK

Consider `O=S(=O)(Nc1nccs1)c1ccc(Nc2nc(C3CC3c3ccccc3)cs2)cc1` (centres unmarked) [Compound 53, 4-(4-(2-phenylcyclopropyl)thiazol-2-ylamino)-N-(thiazol-2-yl)benzenesulfonamide], for which the pIC50 in test [1] is over 5.70; in test [2], under 6.00.
On the same counts, the results for `O=S(=O)(Nc1nccs1)c1ccc(Nc2nccc(OCc3ccccc3F)n2)cc1` [Compound 54, 4-(4-(2-fluorobenzyloxy)pyrimidin-2-ylamino)-N-(thiazol-2-yl)benzenesulfonamide] are 5.00 to 5.70 and under 6.00.
As to `O=S(=O)(Nc1nccs1)c1ccc(Nc2nccc(OCc3ccc(C(F)(F)F)cc3)n2)cc1` [Compound 55, N-(thiazol-2-yl)-4-(4-(4-(trifluoromethyl)benzyloxy)pyrimidin-2-ylamino)benzenesulfonamide], the pIC50 was over 5.70 in test [1] and under 6.00 in test [2].
Consider `O=S(=O)(Nc1nccs1)c1ccc(Nc2nc(CNCC(c3ccccc3)c3ccccc3)cs2)cc1` [Compound 56, 4-(4-((2,2-diphenylethylamino)methyl)thiazol-2-ylamino)-N-(thiazol-2-yl)benzenesulfonamide], for which the pIC50 in test [1] and in test [2] was over 5.70 throughout.
For `O=S(=O)(Nc1nccs1)c1ccc(Nc2nc(CNCCOc3ccccc3)cs2)cc1` [Compound 57, 4-(4-((2-phenoxyethylamino)methyl)thiazol-2-ylamino)-N-(thiazol-2-yl)benzenesulfonamide], the pIC50 was 5.00 to 5.70 in test [1] and under 6.00 in test [2].
On to `O=S(=O)(Nc1nccs1)c1ccc(Nc2nc(CN3CCC[C@H]3CN3CCCC3)cs2)cc1` [Compound 58, (S)-4-(4-((2-(pyrrolidin-1-ylmethyl)pyrrolidin-1-yl)methyl)thiazol-2-ylamino)-N-(thiazol-2-yl)benzenesulfonamide], for which the pIC50 is under 6.00 in test [1] and 5.00 to 5.70 in test [2].
On the same counts, the results for `O=S(=O)(Nc1nccs1)c1ccc(Nc2nc(CNC(c3ccccc3)c3ccccc3)cs2)cc1` [Compound 60, 4-(4-((benzhydrylamino)methyl)thiazol-2-ylamino)-N-(thiazol-2-yl)benzenesulfonamide] are over 5.70 and 5.00 to 5.70.
For `O=S(=O)(Nc1nccs1)c1ccc(Nc2nc(CNCCC(c3ccccc3)c3ccccc3)cs2)cc1` [Compound 61, 4-(4-((3,3-diphenylpropylamino)methyl)thiazol-2-ylamino)-N-(thiazol-2-yl)benzenesulfonamide], the pIC50 in test [1] and in test [2] was over 5.70 in each case.
As to `CC(C)(C)c1ccc(OCc2csc(Nc3ccc(S(=O)(=O)Nc4nccs4)cc3)n2)cc1` [Compound 62, 4-(4-((4-tert-butylphenoxy)methyl)thiazol-2-ylamino)-N-(thiazol-2-yl)benzenesulfonamide], the values for the pIC50 in test [1] and in test [2] were over 5.70 and 5.00 to 5.70, respectively.
In the same order, the values of `CC(Oc1ccccc1)c1csc(Nc2ccc(S(=O)(=O)Nc3nccs3)cc2)n1` (centres unmarked) [Compound 63, 4-(4-(1-phenoxyethyl)thiazol-2-ylamino)-N-(thiazol-2-yl)benzenesulfonamide] are over 5.70 and 5.00 to 5.70.
In the same order, the values of `O=S(=O)(Nc1nccs1)c1ccc(Nc2nc(C3(c4ccc(Cl)cc4)CCCC3)cs2)cc1` [Compound 64, 4-(4-(1-(4-chlorophenyl)cyclopentyl)thiazol-2-ylamino)-N-(thiazol-2-yl)benzenesulfonamide] are over 5.70 and under 6.00.
In the same order, the values of `O=S(=O)(Nc1nccs1)c1ccc(Nc2nc(CNCc3ccc(Cl)cc3)cs2)cc1` [Compound 65, 4-(4-((4-chlorobenzylamino)methyl)thiazol-2-ylamino)-N-(thiazol-2-yl)benzenesulfonamide] are over 5.70 and over 5.70.
Take `COc1ccc(CCNCc2csc(Nc3ccc(S(=O)(=O)Nc4nccs4)cc3)n2)cc1OC` [Compound 66, 4-(4-((3,4-dimethoxyphenethylamino)methyl)thiazol-2-ylamino)-N-(thiazol-2-yl)benzenesulfonamide]: the pIC50 in test [1] is under 6.00; in test [2], under 5.52.
